Reference: ChEMBL document CHEMBL1126389, “Synthesis and anti-HIV activity of 3-deoxy-3-(N-hydroxyamino) analogues of nucleosides” (Bioorg Med Chem Lett, 1992)
pEC50, pIC50: −log10 of the molar value. Calls of active or inactive are those of the source. The calls are words filed in the database; no cut-off is given here.

Columns and labels:
[1] = test system: oncovirus; assay: Compound was evaluated for the antiviral activity against model oncovirus SV 40; A - Marginal activity was found; format: functional
[2] = test system: Human immunodeficiency virus 1; assay: Effective concentration against HIV-1 was determined; format: functional, organism-based
[3] = test system: Human immunodeficiency virus 1; assay: Inhibitory concentration against HIV-1 was determined; format: functional, organism-based
[4] = test system: Human immunodeficiency virus 1; assay: Compound was evaluated for the inhibitory activity against HIV-1; IA - Inactive; format: functional, organism-based

Cc1cn(C2CC(N(C)O)C(CO)O2)c(=O)[nH]c1=O (stereo unspecified)
Activity [1]: A

Cc1cn(C2CC3C(COCN3O)O2)c(=O)[nH]c1=O (stereo unspecified)
pEC50 [2]: 5.60 | pIC50 [3]: < 3.68

Cc1cn(C2CC(N(O)Cc3ccccc3)C(CO)O2)c(=O)[nH]c1=O (stereo unspecified)
Activity [1]: A | Activity [4]: inactive

Cc1cn([C@H]2C[C@](C#N)(N(C)O)[C@@H](CO[Si](C)(C)C(C)(C)C)O2)c(=O)[nH]c1=O
Activity [1]: A
